Results on 6 molecules are retold here after patent US20240366609A1 (Genentech, Inc., priority 2021, published 2024).

Data set [1] concerns SK-MEL-30 melanoma cell line harboring NRAS^Q61K mutation. Briefly: SK-MEL-30 xenograft, belvarafenib and binimetinib (Example 9). The format is in vivo, mice. Conditions: 21 days.
In data set [2] the test system is SK-MEL-30 human melanoma cell line harboring NRAS^Q61K mutation. Briefly: SK-MEL-30 xenograft, belvarafenib and cobimetinib (Example 7). Conditions: 10 mg/kg QD orally, 14 days.
Description: (§1) Tumor volume in mm^3 and body weight change were measured at days 1, 4, 9 and 15.
(§2) Maximum inhibition rate (max inhib (%)) was determined by (1−(mean relative tumor weight in treated group/mean relative tumor weight control group))*100.
Data set [3] has the same test system. Conditions: mouse, in vivo, po.
Description: as §1, §2
Data set [4] can be described thus: Phase 1a/b study NCT03284502: pharmacokinetic analysis. The conditions noted are these: steady-state, dose normalized. The format is in vivo, human.
Data set [5] is described as follows: plasma protein binding of cobimetinib. The format is in vitro ADME. Conditions: concentration-independent.
Data set [6] can be described thus: clinical pharmacokinetics of cobimetinib. The conditions noted are these: for half-life: oral administration.
Data set [7] deals with Calu-6 NSCLC cell line harboring KRAS^Q61K mutation. Put plainly: Calu-6 xenograft, belvarafenib and selumetinib (Example 10). The format is in vivo, mice. Conditions: 17 days.
Data set [8] can be described thus: atezolizumab Study PCD4989g. Format: in vivo, human. The conditions noted are these: single agent. The method, then: The pharmacokinetics of atezolizumab administered as a single agent have been characterized based on clinical data from study PCD4989g and are consistent with a currently ongoing Phase III Study WO29522 in first line treatment of TNBC. Atezolizumab anti-tumor activity has been observed across doses from 1 to 20 mg/kg. […] Atezolizumab dosing schedules of q3w and q2w have been tested. A fixed dose of atezolizumab 800 mg every two weeks (q2w) (equivalent to a body weight-based dose of 10 mg/kg q2w) results in equivalent exposure to the Phase III dose of 1200 mg administered every three weeks (q3w). The q3w schedule is being used in multiple Phase III studies of atezolizumab monotherapy across multiple tumor types and the q2w predominantly used in combination with chemotherapy regimens.

The next data set deals with melanoma. Conditions: patients who have previously undergone anti-PD-1 treatment; cited from earlier work.
A further data set relates to advanced melanoma. Conditions: cited from earlier work.

Take `Cn1cnc2c(F)c(Nc3ccc(Br)cc3F)c(C(=O)NOCCO)cc21` [Binimetinib]: in data set [1] (10 mg/kg QD orally), the “Day for max inhib” value is listed as “Day 21”, the “Max inhib. Rate (%)” value is given as 13.6% and the “Max weight loss (%)” value amounted to 0.8%. Besides, in [1] (30 mg/kg QD orally), the “Day for max inhib” value is listed as “Day 21” and the “Max inhib. Rate (%)” value worked out at 27.1%. Moreover, the tolerability result in data set [1] (single agent, 10 and 30 mg/kg q.d.) was “well tolerated without marked body weight loss”.

`O=C(c1ccc(F)c(F)c1Nc1ccc(I)cc1F)N1CC(O)([C@@H]2CCCCN2)C1` [Cobimetinib, (S)-[3,4-Difluoro-2-(2-fluoro-4-iodophenylamino)phenyl][3-hydroxy-3-(piperidin-2-yl)azetidin-1-yl]methanone]: in data set [2], the “Day for max inhib” value is given as “Day 15”. Besides, the “Max inhib. Rate (%)” value in data set [2] came out at 54.3%. Besides, the tolerability result in data set [3] is reported as “well tolerated without body weight loss”. Besides, the “drug-drug interaction with belvarafenib impacting cobimetinib exposure” value in data set [4] is “no apparent drug-drug interaction”. For the same molecule, the “binding to plasma proteins” value in data set [5] was determined as 95%. Also, in data set [6] (healthy subjects), the “pharmacokinetics in the fed state compared with the fasted state” value is “not altered”. In data set [6] (human, in vivo, oral), this molecule came in with a bioavailability of 45.9%. Also, the time to peak (Tmax) in data set [6] (human, in vivo, po) fell in the range of 1 to 3 h. Moreover, the half-life is 48.8 h in data set [6] (human, in vivo, po, mean terminal half-life (t½)) and 23.1 to 80 h in data set [6] (human, in vivo, po, terminal half-life (t½), range). In addition, in [6] (presence or absence of a high-fat meal), the “effect of the proton pump inhibitor rabeprazole on cobimetinib pharmacokinetics” value is “minimal effect”.

Regarding `Cn1cnc2c(F)c(Nc3ccc(Br)cc3Cl)c(C(=O)NOCCO)cc21` [Selumetinib, reference compound], in data set [7] (5 mg/kg BID orally), the “Day for max inhib” value is on record as “Day 18”, the “Max inhib. Rate (%)” value was determined as 59.0% and the “Max weight loss (%)” value is given as 1.5%. The tolerability result in data set [7] (single agent) is given as “well tolerated with or without minimal body weight loss”.

On to “Atezolizumab: humanized IgG1 monoclonal antibody that targets PD-L1”, for which the “Kaplan-Meier estimated overall 24-week progression-free survival (PFS) rate” value in data set [8] is reported as 33%.

Consider “ipilimumab: anti-CTLA4 immunotherapy agent”, for which the response rate result in the data set on melanoma was “approximately 15%”.

Turning to “nivolumab: anti-PD-1 immunotherapy agent, monotherapy arm of a Phase III trial”, the “median OS” value in the data set with advanced melanoma (5 years minimum follow-up) is 36.9 months. In addition, the PFS with advanced melanoma (Phase III trial of 1296 patients) is 6.9 months.

Usually bioavailability stands for the share of a dose that reaches the circulation, judged against a reference dose that is usually intravenous. As a reminder, the Tmax is the time from dosing to the highest level. As usually defined, the half-life is how long it takes for the measured level to halve. Read a low half-life as fast loss.
